Like-named read-outs stand apart in the source and are kept apart here.
How the values were obtained:
PC-9-luc = assay: CellTiter-Glo anti-proliferation assay, PC-9-luc; format: cell-based
Protocol: The anti-proliferation effect of 2 compounds (the compound of formula (I) and temozolomide) in 7 CNS metastasis cell lines (MOLT-4-luc, Nalm-6-luc, NCI-H460-luc, ACHN-luc2, PC-9-luc, H1975-luc, and KM12-luc) was evaluated.
The plating of cells and compound treatments are shown below in the plate map (Table 12). One plate was needed for the test of 2 compounds (the compound of formula (I) and temozolomide) in one cell line. The compound of formula (I) was tested from 10 μM, 3-fold serial dilution. Temozolomide was tested from 100 μM, 3-fold serial dilution.
All the cell lines were maintained in culture conditions at 37° C. in an atmosphere with 5% CO2 in air. The tumor cells were routinely subcultured. The cells growing in an exponential growth phase were harvested and counted for plating.
Cells were counted by haemocytometer with Trypan blue staining. Next, 135 μL of cell suspension were plated into the assay plates according to the plate map and 135 μL of assay medium into the blank wells. The plates were incubated at 37° C., 5% CO2, 95% air and 100% relative humidity overnight.
4.4.4 Compound Plate (10×) Preparation and Compound Treatment • 10× concentrate compound plate preparation: Add 198 μL of assay medium into each well of the V-bottom plate; then transfer 2 μL of the stock compound solution of each concentration from the stock plate. Add 2 μL of DMSO into the Blank and Control wells. Pipette up and down to mix well. This V-plate is designated as the 10× concentrate compound plate. • For day 0 plate, add 15 μL of the DMSO-medium into the Control wells. The final DMSO concentration was 0.1%. Then directly proceed to cell viability assay. • For assay plate, add 15 μL of the compound-medium of each well from the 10× concentrate compound plate into the cells in 96-well assay plate according to the plate map. Add 15 μL of the DMSO-medium into the Blank and Control wells. The final DMSO concentration was 0.1%. • Return the assay plate into incubator and incubate for 6 days.
The procedures were performed according to the Promega CellTiter-Glo Luminescent Cell Viability Assay Kit manual (Promega-G7573). • The CellTiter-Glo buffer was thawed and equilibrated to room temperature prior to use. • CellTiter-Glo Substrate was equilibrated to room temperature prior to use. • The entire liquid volume of CellTiter-Glo Buffer was transferred into the amber bottle containing CellTiter-Glo Substrate to reconstitute the lyophilized enzyme/substrate mixture. This forms the CellTiter-Glo Reagent. • The contents were mixed by gently vortexing to obtain a homogeneous solution. • The plate was equilibrated and its contents to room temperature for approximately 30 minutes. 75 μL (equal to the half volume of culture medium present in each well) CellTiter-Glo • Reagent was added in each well. Plates were covered with aluminum foil to protect from light. • The contents were mixed for 2 minutes on an orbital shaker to induce cell lysis. • The plate was incubated at room temperature for 20 minutes to stabilize luminescent signal. • Record luminescence on the 2104 EnVision plate reader.
Inhibition rate (IR) of the tested compounds was determined by the following formula: IR (%)=(1−(RLU compound−RLU day0)/(RLU control−RLU day0))*100%. The inhibitions of different dose of compound were calculated in Excel file, and then were used to plot inhibition curves and evaluate related parameters, such as Min (%), Max (%) and GI50. The data were interpreted by GraphPad Prism.

[1] = Pharmacokinetics and brain distribution after single oral dose, mice; format: in vivo, male CD1 mice
Protocol: The pharmacokinetics and brain distribution in maleCD1 mice and Sprague-Dawley rats following a single oral (PO) dose was evaluated. The compound of formula (I) was administered once at 10 mg/kg to mice and at 1, 10, 30, and 100 mg/kg to rats. All doses, compound of formula (I) concentrations, and derived PK parameters are expressed as the free base of the compound of formula (I).
The in-life portion of these studies was performed by Alliance Pharma (Malvern, Pa.) according to Protocols 200107-02 (mice) and 1910158-02 (rats). Animals were assigned randomly to the dose groups and were fasted 12 hours prior to dosing. Water was available ad libitum. The compound of formula (I) (as an HCl salt) was given to male CD1 mice at 10 mg/kg single PO dose, while in Sprague-Dawley rats, the doses were 1, 10, 30, and 100 mg/kg. In both studies, the compound of formula (I) was formulated in 0.5% hydroxypropyl methylcellulose (HPMC)/0.2% Tween 80 and the dosing volume was 5 mL/kg for all dose groups.
Whole blood was collected at 2, 4, 6, and 12 hours post dose from mice and predose and 1, 2, 4, 8, 12, and 24 hours post dose from rats into tubes containing dipotassium ethylenediaminetetraacetic acid (K2EDTA). Blood was obtained from 3 mice and 4 rats per time-point per dose level. The blood samples were processed into plasma analyzed at Alliance Pharma using the method as described below.
The brain tissue was collected from mice at 2, 4, 6, and 12 hours post dose and was collected from rats at 6 hours post dose given 1, 10, 30, or 100 mg/kg of the compound of formula (I). Brain tissue was obtained from 3 mice per time-point at the 10 mg/kg dose level and 4 rats per dose level at the 6-hour post dose time-point.
Brain tissue was rinsed by phosphate-buffered saline (PBS) buffer immediately after harvest, weighed, and mixed with solvent (MeOH:H2O [volume over volume of 20:80]) with a ratio of tissue to solvent of 1:4 (weight over volume). […] After homogenization, the homogenate was aliquoted out for sample analysis.
The concentrations of the compound of formula (I) in the plasma and brain homogenate were determined versus a calibration curve prepared in plasma and naïve brain homogenate, respectively. Samples were deproteinized with acetonitrile containing tolbutamide as internal standard. After centrifugation, the supernatants were analyzed by liquid chromatography with tandem mass spectrometry (LC-MS/MS). Chromatography was performed with a Zorbax SB-C18 (50×2.1 mm, […]) column under gradient conditions described in Table 22. Mobile Phase A (0.1% formic acid [FA] in water) and Mobile Phase B (0.1% FA in acetonitrile) were delivered as a flow rate of 0.8 mL/min. LC-MS/MS was performed using a positive TurboIonSpray® interface on a SciexAPI 4000 and multiple-reaction monitoring (MRM) over a concentration range of 1 ng/mL to 1000 (rats) or 2000 (mice) ng/mL for the plasma and brain homogenate samples.
The mean plasma concentration-time data of the compound of formula (I) was used to determine the pharmacokineticparameters by standard noncompartmental methods using Phoenix® WinNonlin (version 8.2.0; Certara, Princeton, N.J.). Graphs were plotted in Prism® (version 2.3.0; GraphPad, San Diego, Calif.). Concentrations were rounded to 3 significant figures.

[2] = inhibition rate, 6 days, Compound (I) from 10 μM, temozolomide from 100 μM, 3-fold, 9 points

SMILES: CC(C)N1CCOc2c(F)cc(-c3nc(Nc4ccc(C5CCN(C)CC5)cn4)ncc3F)cc21 [Compound (I), 5-fluoro-4-(8-fluoro-4-isopropyl-3,4-dihydro-2H-benzo[b][1,4]oxazin-6-yl)-N-(5-(1-methylpiperidin-4-yl)pyridin-2-yl)pyrimidin-2-amine]
- GI50 (PC-9-luc; 144 h, 6 days incubation, read-out: Absolute GI50): 2790 nM
- Max (%) (PC-9-luc; [2]): 116.3%
- Min (%) (PC-9-luc; [2]): −13.7%
- Half-life in brain versus plasma ([1]; in vivo animal models, oral administration): longer half-life in the brain than in the plasma
- Kp at 2 h ([1]; male, CD1, mouse, brain, po, 10 mg/kg, mice, single PO 10 mg/kg, 2 h, read-out: Brain:Plasma Ratio, mean (SD)): 1.7
- Kp at 4 h ([1]; male, CD1, mouse, brain, po, 10 mg/kg, mice, single PO 10 mg/kg, 4 h, read-out: Brain:Plasma Ratio, mean (SD)): 2.1
- Kp at 6 h ([1]; male, CD1, mouse, brain, po, 10 mg/kg, mice, single PO 10 mg/kg, 6 h, read-out: Brain:Plasma Ratio, mean (SD)): 1.9
- Kp at 12 h ([1]; male, CD1, mouse, brain, po, 10 mg/kg, mice, single PO 10 mg/kg, 12 h, read-out: Brain:Plasma Ratio, mean (SD)): 3.3
- Kp at 12 h ([1]; male, CD1, mouse, brain, po, 10 mg/kg, mice, single PO 10 mg/kg, at 2, 4, 6, and 12 hours post-dose, read-out: Brain-to-plasma concentration ratio): > 1.5
- concentration at 2 h ([1]; male, CD1, mouse, brain, mice, single PO 10 mg/kg, 2 h, read-out: Brain Conc): 309 ng/mL
- concentration at 4 h ([1]; male, CD1, mouse, brain, mice, single PO 10 mg/kg, 4 h, read-out: Brain Conc): 436 ng/mL
- concentration at 6 h ([1]; male, CD1, mouse, brain, mice, single PO 10 mg/kg, 6 h, read-out: Brain Conc): 464 ng/mL
- concentration at 12 h ([1]; male, CD1, mouse, brain, mice, single PO 10 mg/kg, 12 h, read-out: Brain Conc): 345 ng/mL
- concentration at 2 h ([1]; male, CD1, mouse, plasma, mice, single PO 10 mg/kg, 2 h, read-out: Plasma Conc): 187 ng/mL
- concentration at 4 h ([1]; male, CD1, mouse, plasma, mice, single PO 10 mg/kg, 4 h, read-out: Plasma Conc): 209 ng/mL
- concentration at 6 h ([1]; male, CD1, mouse, plasma, mice, single PO 10 mg/kg, 6 h, read-out: Plasma Conc): 247 ng/mL
- concentration at 12 h ([1]; male, CD1, mouse, plasma, mice, single PO 10 mg/kg, 12 h, read-out: Plasma Conc): 105 ng/mL
